Publication PMC7321251 (Molecules, 2020)

Key:
SK2 = target: SK2; parameters: method as in PMID 21940750; settings: cited from earlier work
SPHK1 = target: T1, SPHK1 (Homo sapiens, UniProt Q9NYA1); assay: Sphingosine kinase 1 activity assay (Adapta screening system); assay type: biochemical; settings: 20 μM compound; for inhibition at 20 µM: read-out: SK1 inhibition; for SK1 inhibitory effect (in words): compared with PF-543
T1 construct: purchased Thermo Fisher Scientific

[1] = Liver microsomal stability, human (HLM); assay type: in vitro ADME; settings: human liver microsomes, NADPH
Description: (§1) Microsomal incubations were conducted in triplicate in 0.1 M potassium phosphate buffer (pH 7.4) in a clean 1.5 mL eppendorf tube. […] HLM was added and the mixture was pre-incubated at 37 °C in a shaking incubator at approximately 350 rpm for 5 min under Thermo mixer (Eppendorf., Hamburg, Germany). Reactions were initiated by the addition of 1 mM NADPH and were then quenched by adding 40 µL of ice-cold acetonitrile containing 10 µM chlorproamide (CPP) as an internal standard at 0, 30 min. The incubation mixtures were then centrifuged at 15,000× g for 5 min at 4 °C. A 2 µL aliquot of the supernatant was directly injected into the LC-MS/MS system. The LC-MS/MS system consisted of the Nexera XR HPLC system (Shimadzu Co., Kyoto, Japan) coupled to the TSQ Vantage triple quadrupole mass spectrometer equipped with Xcalibur version 1.1.1 (Thermo Fisher Scientific Inc., Waltham, MA, USA).

[2] = Liver microsomal stability, dog (DLM); assay type: in vitro ADME; settings: dog liver microsomes, NADPH
Description: [Worded in the source for another species; this species is reported under the same test.] as §1

[3] = Liver microsomal stability, rat (RLM); assay type: in vitro ADME; settings: rat liver microsomes, NADPH
Description: [Worded in the source for another species; this species is reported under the same test.] as §1

[4] = Liver microsomal stability, mouse (MLM); assay type: in vitro ADME; settings: mouse liver microsomes, NADPH
Description: [Worded in the source for another species; this species is reported under the same test.] as §1

SPHK2 = target: T2, SPHK2 (Homo sapiens, UniProt Q9NRA0); assay: Sphingosine kinase 2 activity assay (Adapta screening system); assay type: biochemical; settings: 20 μM compound
T2 construct: purchased Thermo Fisher Scientific
T2 sequence (Q9NRA0 1-654): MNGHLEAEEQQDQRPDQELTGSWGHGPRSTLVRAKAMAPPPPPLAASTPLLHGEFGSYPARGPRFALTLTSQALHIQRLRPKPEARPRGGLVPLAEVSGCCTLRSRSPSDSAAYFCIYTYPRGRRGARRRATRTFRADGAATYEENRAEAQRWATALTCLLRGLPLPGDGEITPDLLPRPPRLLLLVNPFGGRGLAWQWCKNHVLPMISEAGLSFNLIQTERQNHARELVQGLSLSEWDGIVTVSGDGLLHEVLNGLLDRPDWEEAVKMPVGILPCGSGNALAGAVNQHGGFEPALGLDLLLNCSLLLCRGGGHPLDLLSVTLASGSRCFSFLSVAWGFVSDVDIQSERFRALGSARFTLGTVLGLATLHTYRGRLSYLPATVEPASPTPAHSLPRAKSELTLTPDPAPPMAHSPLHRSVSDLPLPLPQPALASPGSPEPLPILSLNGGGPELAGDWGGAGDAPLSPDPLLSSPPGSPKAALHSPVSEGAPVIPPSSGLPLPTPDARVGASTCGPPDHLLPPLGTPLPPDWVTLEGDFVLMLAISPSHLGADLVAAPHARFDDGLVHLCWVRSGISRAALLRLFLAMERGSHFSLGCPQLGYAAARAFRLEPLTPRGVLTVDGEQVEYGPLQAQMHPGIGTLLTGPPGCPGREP
Description: […]. The sphingosine kinase 1 activity assay used 0.04–0.16 ng SPHK1, 50 μM sphingosine lipid substrate in 32.5 mM HEPES pH 7.5, 0.005% BRIJ 35, 5 mM MgCl2, 0.5 mM ethylene glycol-bis(β-aminoethyl ether)-N,N,N′,N′-tetraacetic acid (EGTA). The sphingosine kinase 2 activity assay detected 35 - 140 ng SPHK2, 50 μM sphingosine lipid substrate in 32.5 mM HEPES pH 7.5, 0.5 mM EGTA, 1.5 mM MgCl2.

T1 sequence (Q9NYA1 whole entry): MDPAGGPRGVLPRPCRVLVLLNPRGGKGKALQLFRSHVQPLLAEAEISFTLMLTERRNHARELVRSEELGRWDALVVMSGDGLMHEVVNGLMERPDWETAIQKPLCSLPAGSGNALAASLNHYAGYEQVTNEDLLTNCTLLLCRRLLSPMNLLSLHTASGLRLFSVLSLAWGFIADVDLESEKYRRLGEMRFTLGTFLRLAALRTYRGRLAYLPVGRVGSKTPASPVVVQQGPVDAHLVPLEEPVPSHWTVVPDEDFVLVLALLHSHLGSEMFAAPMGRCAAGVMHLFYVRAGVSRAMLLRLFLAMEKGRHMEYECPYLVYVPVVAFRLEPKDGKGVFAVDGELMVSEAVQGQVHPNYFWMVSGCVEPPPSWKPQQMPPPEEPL

For `CCCCCCCCc1ccc(CC[C@@](N)(CO)COC)cc1` [ROME, (R)-FTY720-OMe], the Ki (SK2) is given as 16 µM.

For `O=S(=O)(Cc1cccc(OCc2ccc(CN3CCC[C@@H]3CO)cc2)c1)c1ccccc1` [compound 2, (R)-(1-(4-((3-((Phenylsulfonyl)methyl)phenoxy)methyl)benzyl)pyrrolidin-2-yl)methanol], the inhibition at 20 µM (SPHK1) was 100%.

With `O=S(=O)(Cc1cccc(OCc2ccc(CN3CC[C@H](O)C3)cc2)c1)c1ccccc1` [compound 3, (S)-1-(4-((3-((Phenylsulfonyl)methyl)phenoxy)methyl)benzyl)pyrrolidin-3-ol] the inhibition at 20 µM (SPHK1) was 100%.

In the case of `O=S(=O)(Cc1cccc(OCc2ccc(CN3CCC(O)CC3)cc2)c1)c1ccccc1` [compound 4, 1-(4-((3-((Phenylsulfonyl)methyl)phenoxy)methyl)benzyl)piperidin-4-ol], the “SK1 inhibitory effect (in words)” value (SPHK1) is reported as “reduced”.

For `O=S(=O)(Cc1cc(F)cc(OCc2ccc(CN3CCC[C@@H]3CO)cc2)c1)c1ccccc1` [compound 5, (R)-(1-(4-((3-Fluoro-5-((phenylsulfonyl)methyl)phenoxy)methyl)benzyl)pyrrolidin-2-yl)methanol], the inhibition at 20 µM (SPHK1) was 100%, the “HLM microsomal stability (% remaining during 30 min)” value [1] was 7.6 % remaining and the “DLM microsomal stability (% remaining during 30 min)” value [2] was 5.5 % remaining. The “RLM microsomal stability (% remaining during 30 min)” value [3] was 6.8 % remaining and the “MLM microsomal stability (% remaining during 30 min)” value [4] was 9.8 % remaining.

With `O=S(=O)(Cc1cc(F)cc(OCc2ccc(CN3CC[C@H](O)C3)cc2)c1)c1ccccc1` [compound 6, (S)-1-(4-((3-fluoro-5-((phenylsulfonyl)methyl)phenoxy)methyl)benzyl)pyrrolidin-3-ol] the inhibition at 20 µM (SPHK1) was 100%.

In the case of `O=S(=O)(Cc1cc(F)cc(OCc2ccc(CN3CCC(O)CC3)cc2)c1)c1ccccc1` [compound 7, 1-(4-((3-Fluoro-5-((phenylsulfonyl)methyl)phenoxy)methyl)benzyl)piperidin-4-ol], the “SK1 inhibitory effect (in words)” value (SPHK1) is reported as “reduced”.

With `O=S(=O)(Cc1cc(O)cc(OCc2ccc(CN3CCC[C@@H]3CO)cc2)c1)c1ccccc1` [compound 8, (R)-3-((4-((2-(Hydroxymethyl)pyrrolidin-1-yl)methyl)benzyl)oxy)-5-((phenylsulfonyl)methyl)phenol] the “SK2 inhibitory effect (in words)” value (SPHK2) was “showed an inhibitory effect against SK2 alone”.

With `O=S(=O)(Cc1cc(O)cc(OCc2ccc(CN3CCC(O)CC3)cc2)c1)c1ccccc1` [compound 10, 1-(4-((3-Hydroxy-5-((phenylsulfonyl)methyl)phenoxy)methyl)benzyl)piperidin-4-ol] the “SK1 inhibitory effect (in words)” value (SPHK1) was “reduced”.
